GI50 and TGI data for 14 compounds are collected here from PubChem BioAssay (NCI).

Among the test systems are MALME-3M melanoma; U251 CNS; BT-549 breast; MCF7 breast; NCI-H522 lung; IGROV1 ovarian; SN12C renal; COLO 205 colon; SNB-75 CNS; CAKI-1 renal.
Holding throughout (assay): inhibition of tumour cell growth, NCI panel, 48 h

Structures are written as SMILES.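 Step 1: Grow cells in 96-well plates. Step 2: Expose to compound for 48 hours at 5 concentrations. Step 3: Interpolate endpoints linearly; if unreached, use highest concentration. Abbreviation: GI50, concentration required for 50% inhibition of growth. At the TGI there is no net growth.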 Where only a bound is given, the exact number is not on record here.

For the compound `O=C(O)c1cn(C2CC2)c2cc(N3CCN(Cc4c(O)ccc5ccccc45)CC3)c(F)cc2c1=O`, the GI50 in the assay on MALME-3M melanoma is 4.07 µM; in the assay on U251 CNS, 19 µM; in the assay on BT-549 breast, 3.5 µM; with MCF7 breast, 5.63 µM; in the assay with NCI-H522 lung, 2.82 µM; in the assay on IGROV1 ovarian, 9.64 µM. Moreover, the GI50 was 5.38 µM with SN12C renal, 5.13 µM with COLO 205 colon, 1.94 µM in the assay with SNB-75 CNS and 3.29 µM with CAKI-1 renal. The TGI in the assay with MALME-3M melanoma is greater than 100 µM; in the assay on U251 CNS, greater than 100 µM; in the assay on BT-549 breast, 48.7 µM; in the assay with MCF7 breast it was greater than 100 µM; in the assay with NCI-H522 lung it was greater than 100 µM; with IGROV1 ovarian it was greater than 100 µM. Also, the TGI in the assay on SN12C renal was greater than 100 µM; with COLO 205 colon it was greater than 100 µM; in the assay on SNB-75 CNS, 17.8 µM; in the assay on CAKI-1 renal, greater than 100 µM.

Regarding `COc1cc(/C=C/C(=O)c2c(-c3ccc(F)cc3)nc3sc(C)nn23)cc(OC)c1OC`, the GI50 in the assay with MALME-3M melanoma was 4.26 µM; in the assay with U251 CNS, 2.01 µM; in the assay with BT-549 breast it was 2.55 µM; with MCF7 breast, 3.03 µM; with NCI-H522 lung, 1.55 µM; in the assay with IGROV1 ovarian it was 2.69 µM. Besides, the GI50 with SN12C renal was 2.48 µM; with COLO 205 colon, 1.98 µM; in the assay with SNB-75 CNS, 2.67 µM; with CAKI-1 renal, 3.27 µM. In addition, the TGI stood at 16.9 µM in the assay on MALME-3M melanoma; 5.45 µM in the assay with U251 CNS; 7.09 µM in the assay on BT-549 breast; 16.5 µM in the assay on MCF7 breast; 3.19 µM in the assay with NCI-H522 lung; 6.71 µM in the assay with IGROV1 ovarian. For the same compound, the TGI with SN12C renal came to 8.65 µM; with COLO 205 colon, 3.77 µM; in the assay on SNB-75 CNS, 14.6 µM; with CAKI-1 renal it was 18.2 µM.

Consider `CN(C)C=Nc1c(I)cc(I)c(CCC(=O)O)c1I`, for which the GI50 in the assay with MALME-3M melanoma, in the assay with U251 CNS, with BT-549 breast, in the assay with MCF7 breast, with NCI-H522 lung and with IGROV1 ovarian was greater than 100 µM throughout. In addition, the GI50 with SN12C renal, with COLO 205 colon, in the assay on SNB-75 CNS and with CAKI-1 renal was greater than 100 µM in each case. The TGI in the assay on MALME-3M melanoma, in the assay with U251 CNS, with BT-549 breast, in the assay on MCF7 breast, in the assay on NCI-H522 lung and in the assay on IGROV1 ovarian was greater than 100 µM throughout. Also, the TGI with SN12C renal, in the assay on COLO 205 colon, in the assay on SNB-75 CNS and with CAKI-1 renal was greater than 100 µM each time.

In the case of `CN1C(=O)C2(c3ccccc31)C1CC3C(CO1)C1C2C3(CO)CN1C#N` (stereo not given), the TGI in the assay with MALME-3M melanoma, in the assay with U251 CNS, with BT-549 breast, in the assay with MCF7 breast, with NCI-H522 lung and in the assay on IGROV1 ovarian was greater than 100 µM in each case. Besides, the TGI in the assay on SN12C renal, with COLO 205 colon, with SNB-75 CNS and in the assay on CAKI-1 renal was greater than 100 µM throughout.

Regarding `CCCN(CCC)c1ccc(C=O)c(C)c1`, the GI50 with MALME-3M melanoma is 43.8 µM; in the assay on U251 CNS, 38.5 µM; with BT-549 breast, 26.9 µM; in the assay on MCF7 breast, 40.8 µM; in the assay on NCI-H522 lung, 37.4 µM; in the assay on IGROV1 ovarian it was 61 µM. For the same compound, the GI50 is 56.7 µM in the assay on SN12C renal, 29.1 µM in the assay with COLO 205 colon, 22.3 µM with SNB-75 CNS and 33.7 µM in the assay on CAKI-1 renal. Besides, the TGI in the assay with MALME-3M melanoma, in the assay with U251 CNS, in the assay with BT-549 breast, in the assay with MCF7 breast, in the assay on NCI-H522 lung and in the assay with IGROV1 ovarian was greater than 100 µM each time. Further, the TGI with SN12C renal was greater than 100 µM; in the assay on COLO 205 colon it was greater than 100 µM; in the assay with SNB-75 CNS, 97.7 µM; in the assay with CAKI-1 renal, greater than 100 µM.

Turning to `COc1ccc(OC)c(/C=C/c2ccnc3ccccc23)c1`, the TGI is 21.5 µM with MALME-3M melanoma; 5.66 µM in the assay on U251 CNS; 14.4 µM in the assay on BT-549 breast; 17.4 µM in the assay with MCF7 breast; 1.79 µM with NCI-H522 lung; 17.4 µM in the assay on IGROV1 ovarian. Also, the TGI in the assay with SN12C renal turned out to be 17.6 µM; in the assay with COLO 205 colon, 0.863 µM; with SNB-75 CNS, 0.977 µM; in the assay with CAKI-1 renal it was 18.1 µM.

Take `C=C1C(=O)C2=CC1CCC(=O)C1(C)CCC(OC(C)=O)C(C)(C)C1CC2O` (stereo not given): the TGI in the assay on MALME-3M melanoma was 18.1 µM; in the assay with U251 CNS, greater than 47.1 µM; in the assay with BT-549 breast it was 9.33 µM; in the assay with MCF7 breast, 3.84 µM; in the assay on NCI-H522 lung, 2.19 µM; in the assay with IGROV1 ovarian, 14.1 µM. Moreover, the TGI amounted to 12.5 µM in the assay on SN12C renal, 2.47 µM in the assay with COLO 205 colon, 24.8 µM with SNB-75 CNS and 6.2 µM in the assay on CAKI-1 renal.

Turning to `O=c1cccc2n1CC1CNC[C@H]2C1`, the TGI in the assay with MALME-3M melanoma, with U251 CNS, in the assay with BT-549 breast, with MCF7 breast, in the assay with NCI-H522 lung and in the assay with IGROV1 ovarian was greater than 100 µM throughout. Further, the TGI in the assay on SN12C renal, with COLO 205 colon, in the assay on SNB-75 CNS and in the assay with CAKI-1 renal was greater than 100 µM throughout.

Regarding `CN(C)c1ccccc1[CH2][Ga]([Cl])[CH2]c1ccccc1N(C)C`, the GI50 with MALME-3M melanoma is 1.75 µM; in the assay with U251 CNS it was 1.16 µM; in the assay on BT-549 breast it was 1.83 µM; with MCF7 breast it was 0.954 µM; in the assay with NCI-H522 lung, 1.41 µM; with IGROV1 ovarian it was 1.29 µM. For the same compound, the GI50 in the assay with SN12C renal was 1.31 µM; in the assay on COLO 205 colon it was 1.04 µM; with SNB-75 CNS it was 1.41 µM; in the assay on CAKI-1 renal it was 1.58 µM. Further, the TGI in the assay on MALME-3M melanoma came to 3.32 µM; in the assay on U251 CNS, 2.41 µM; in the assay on BT-549 breast, 3.29 µM; in the assay with MCF7 breast, 2.67 µM; in the assay with NCI-H522 lung, 3.45 µM; in the assay on IGROV1 ovarian it was 2.73 µM. The TGI with SN12C renal is 2.58 µM; with COLO 205 colon it was 2.36 µM; in the assay with SNB-75 CNS it was 2.74 µM; in the assay with CAKI-1 renal it was 3.94 µM.

Take `COc1cc(CCNC(=O)OC(C)(C)C)c2c(c1OC)SSSSS2`: the GI50 in the assay on MALME-3M melanoma is 2.48 µM; with U251 CNS it was 2.47 µM; in the assay with BT-549 breast, 2.54 µM; in the assay on MCF7 breast it was 1.77 µM; in the assay on NCI-H522 lung, 2.1 µM; in the assay with IGROV1 ovarian, 2.2 µM. Besides, the GI50 is 3.74 µM with SN12C renal, 2.19 µM in the assay with COLO 205 colon, 2.27 µM with SNB-75 CNS and 2.17 µM with CAKI-1 renal. The TGI with MALME-3M melanoma stood at 4.94 µM; in the assay on U251 CNS, 5.28 µM; in the assay on BT-549 breast, 5.06 µM; in the assay with MCF7 breast, 5.06 µM; in the assay on NCI-H522 lung, 4.18 µM; in the assay with IGROV1 ovarian, 4.63 µM. For the same compound, the TGI with SN12C renal was 15.8 µM; with COLO 205 colon, 4.35 µM; in the assay on SNB-75 CNS, 4.56 µM; in the assay on CAKI-1 renal, 4.28 µM.

`O=[N+]([O-])c1oc2ccc3ccccc3c2c1CCO`: the TGI in the assay on MALME-3M melanoma stood at 3.84 µM; in the assay with U251 CNS it was 56.9 µM; with BT-549 breast, 8.71 µM; with MCF7 breast, 29.5 µM; with NCI-H522 lung it was 3.77 µM; with IGROV1 ovarian it was 3.56 µM. In addition, the TGI is greater than 52 µM in the assay on SN12C renal, 1.46 µM in the assay on COLO 205 colon, 16.7 µM with SNB-75 CNS and 8.58 µM in the assay on CAKI-1 renal.

In the case of `Cc1ccc(OCCOCCOCCOCCOCCOc2ccc(C)n(O)c2=S)c(=S)n1O`, the GI50 in the assay with MALME-3M melanoma was 0.109 µM; with U251 CNS, 0.0633 µM; in the assay with BT-549 breast it was 0.103 µM; with MCF7 breast it was 0.0254 µM; with NCI-H522 lung, 0.0386 µM; with IGROV1 ovarian, 0.0372 µM. The GI50 with SN12C renal was 0.0496 µM; in the assay with COLO 205 colon it was 0.0428 µM; with SNB-75 CNS it was 0.456 µM; with CAKI-1 renal, 0.0453 µM. Moreover, the TGI in the assay on MALME-3M melanoma was greater than 34.6 µM; with U251 CNS it was greater than 100 µM; in the assay on BT-549 breast, greater than 64.5 µM; in the assay on MCF7 breast, greater than 69.7 µM; with NCI-H522 lung it was greater than 100 µM; with IGROV1 ovarian, greater than 72.5 µM. Moreover, the TGI in the assay on SN12C renal was greater than 100 µM; with COLO 205 colon, greater than 100 µM; in the assay on SNB-75 CNS it was 18.1 µM; in the assay on CAKI-1 renal, greater than 100 µM.

For `CC1(C)CCC(C)(C)c2cc(NC(=O)c3ccc(C(=O)O)cc3)ccc21`, the TGI with MALME-3M melanoma is 60.1 µM; with U251 CNS, greater than 62.5 µM; with BT-549 breast, 68.1 µM; in the assay with MCF7 breast, greater than 83.2 µM; in the assay on NCI-H522 lung it was greater than 89.3 µM; in the assay on IGROV1 ovarian, greater than 75.6 µM. Besides, the TGI with SN12C renal was 93 µM; in the assay on COLO 205 colon, greater than 55.9 µM; in the assay with SNB-75 CNS, greater than 100 µM; in the assay on CAKI-1 renal, 98.6 µM.

Regarding `COC(=O)c1oc2c(C(=O)/C=C/c3ccc(OC)cc3)c(OCCN3CCOCC3)ccc2c1C`, the GI50 in the assay on MALME-3M melanoma is 2.47 µM; in the assay on U251 CNS, 1.4 µM; in the assay with BT-549 breast, 2.42 µM; in the assay with MCF7 breast, 0.97 µM; with NCI-H522 lung, 1.61 µM; in the assay with IGROV1 ovarian, 1.85 µM. The GI50 was 1.78 µM with SN12C renal, 1.58 µM in the assay with COLO 205 colon, 1.83 µM in the assay on SNB-75 CNS and 1.74 µM in the assay with CAKI-1 renal. The TGI stood at 6.54 µM in the assay with MALME-3M melanoma; 2.74 µM in the assay with U251 CNS; 7.91 µM in the assay on BT-549 breast; 7.33 µM with MCF7 breast; 3.54 µM in the assay on NCI-H522 lung; 4.55 µM with IGROV1 ovarian. Further, the TGI worked out at 5.91 µM with SN12C renal, 3.12 µM in the assay with COLO 205 colon, 6.77 µM with SNB-75 CNS and 4.94 µM in the assay on CAKI-1 renal.
